This is an account of results in patent publication US8841456B2, “1,5-naphthyridine derivative or salt thereof” (FUJIFILM Corporation, priority 2011, dated 2014).

Assay [1] has as its target T1, glutathione S-transferase (GST)-fusion human ERK2 protein (Homo sapiens, UniProt P28482).
T1 construct: purchased Carna Biosciences, Inc; host or cells: E. coli expression system
As to the kind of experiment: ERK2 enzyme assay (LabChip mobility shift). The class given is biochemical. The settings on record: 2 nM ERK2, 4.25 μM FL-Peptide 8, 43 μM ATP. In outline:
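GST-tagged human ERK2 from E. coli, at 2 nM, was preincubated 15 min at room temperature with compound in Hepes pH 7.5 with MgCl2, DTT and Brij35. The reaction ran 120 min at 25 °C with 4.25 μM FL-Peptide 8 and 43 μM ATP (final). Phosphopeptide fraction was measured by mobility-shift separation to give IC50.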

Assay [2] relates to Human colon cancer cell line (HCT116). As to the kind of experiment: Cell growth inhibition test (Celltiter-Glo). The class given is cell-based. The settings on record: HCT-116, IC50 class, 72 hours culture, viable cells by Celltiter-Glo. As for the experimental part:
Evaluation of the cell proliferation inhibitory activity of the compound of the present invention was carried out according to the method below. Human colon cancer cell line (HCT116) McCoy's 5A (INVITROGEN)+Final Concentration 10% FBS+GLUTA Max (INVITROGEN) Celltiter-Glo™ Luminescent Cell Viability Assay (Promega Corporation) HCT116 was seeded on a 96-well culture microplate (Corning Inc.) at 750/well (90 uL/well), and a compound for evaluation (final concentration: 25.00 μM to 0.01 μM, 3-fold common ratio 8 points) was added thereto. After culturing in a CO2 incubator (37° C.) for 72 hours, the number of viable cells were calculated by Celltiter-Glo. For the measurement of luminescence intensity, EnVision (PerkinElmer, Inc.) was used. The inhibitory activity of the compound was calculated using IC50 (50% inhibitory concentration). The IC50 was calculated using XLfit (IDBS). The results of IC50 were evaluated according to the following evaluation criteria.

The target of another assay is T2, human PI3Kα protein (Homo sapiens, UniProt P42336).
T2 construct: purchased Carna Biosciences, Inc; host or cells: Baculovirus expression system
T2 sequence (P42336 whole entry): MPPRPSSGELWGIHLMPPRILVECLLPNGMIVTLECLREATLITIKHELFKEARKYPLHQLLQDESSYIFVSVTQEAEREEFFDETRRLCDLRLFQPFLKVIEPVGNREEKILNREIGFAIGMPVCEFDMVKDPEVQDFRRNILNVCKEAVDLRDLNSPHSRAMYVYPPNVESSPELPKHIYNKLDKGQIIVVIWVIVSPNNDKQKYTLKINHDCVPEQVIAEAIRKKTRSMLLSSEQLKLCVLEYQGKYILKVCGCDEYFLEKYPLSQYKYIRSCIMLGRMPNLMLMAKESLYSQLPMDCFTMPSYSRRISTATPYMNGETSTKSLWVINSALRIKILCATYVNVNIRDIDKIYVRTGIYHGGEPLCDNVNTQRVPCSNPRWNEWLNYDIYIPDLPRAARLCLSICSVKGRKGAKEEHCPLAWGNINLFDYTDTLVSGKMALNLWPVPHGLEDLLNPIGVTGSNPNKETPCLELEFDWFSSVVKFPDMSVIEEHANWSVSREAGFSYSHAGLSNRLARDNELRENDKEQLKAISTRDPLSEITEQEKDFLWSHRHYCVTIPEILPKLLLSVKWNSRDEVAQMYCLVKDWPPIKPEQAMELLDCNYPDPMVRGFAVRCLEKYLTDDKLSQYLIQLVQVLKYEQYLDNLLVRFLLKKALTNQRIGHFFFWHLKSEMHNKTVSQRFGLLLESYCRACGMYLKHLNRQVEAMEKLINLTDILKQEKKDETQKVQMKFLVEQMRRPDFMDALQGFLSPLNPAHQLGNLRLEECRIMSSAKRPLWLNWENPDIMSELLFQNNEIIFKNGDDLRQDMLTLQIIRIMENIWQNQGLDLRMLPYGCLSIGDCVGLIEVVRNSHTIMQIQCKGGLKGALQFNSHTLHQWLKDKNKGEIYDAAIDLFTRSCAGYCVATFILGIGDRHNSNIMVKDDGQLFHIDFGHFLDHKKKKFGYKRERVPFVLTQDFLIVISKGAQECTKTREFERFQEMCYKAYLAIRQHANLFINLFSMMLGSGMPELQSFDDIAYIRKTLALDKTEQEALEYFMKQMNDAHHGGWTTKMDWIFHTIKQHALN
T2 sequence (P27986 whole entry partner): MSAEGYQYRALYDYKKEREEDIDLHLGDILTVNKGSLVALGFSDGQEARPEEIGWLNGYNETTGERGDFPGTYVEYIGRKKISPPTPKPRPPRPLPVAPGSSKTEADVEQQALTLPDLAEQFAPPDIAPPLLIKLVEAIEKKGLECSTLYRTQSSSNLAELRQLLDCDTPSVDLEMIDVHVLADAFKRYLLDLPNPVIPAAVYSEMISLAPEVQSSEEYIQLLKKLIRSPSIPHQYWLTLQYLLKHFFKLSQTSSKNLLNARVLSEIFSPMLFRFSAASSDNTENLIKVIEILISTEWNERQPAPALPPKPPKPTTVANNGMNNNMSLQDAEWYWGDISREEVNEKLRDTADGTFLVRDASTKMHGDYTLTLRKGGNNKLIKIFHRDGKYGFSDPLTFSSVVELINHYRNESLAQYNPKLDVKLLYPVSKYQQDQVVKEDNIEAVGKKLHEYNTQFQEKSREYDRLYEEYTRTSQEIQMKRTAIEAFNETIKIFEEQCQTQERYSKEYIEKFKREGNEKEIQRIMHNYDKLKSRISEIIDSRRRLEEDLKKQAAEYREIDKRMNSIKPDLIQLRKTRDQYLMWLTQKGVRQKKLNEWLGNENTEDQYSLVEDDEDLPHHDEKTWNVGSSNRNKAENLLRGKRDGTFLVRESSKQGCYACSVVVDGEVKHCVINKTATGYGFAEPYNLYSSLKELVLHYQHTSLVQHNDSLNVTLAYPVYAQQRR
Kind of assay: PI3Kα enzyme assay (ADP-Glo kinase assay). In kind it is biochemical. Particulars: 3 nM PI3Kα, 50 μM PIP2, 100 μM ATP. The method in brief:
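Baculovirus-expressed biotinylated human PI3Kα (3 nM) preincubated 15 min with compound in Tris pH 7.5, MgCl2, BSA, then reacted 60 min at 25 °C with 50 μM PIP2 and 100 μM ATP. ADP quantified by ADP-Glo luminescence; IC50 calculated.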

Setting [3] is: IC50 class, read-out: ERK2 Inhibitory Activity.
[4] abbreviates: IC50 class, read-out: PI3Kα Inhibitory Activity.

Like-named read-outs stand apart in the source and are kept apart here. Bounds are passed on as bounds.

T1 sequence (P28482 whole entry, the tested form may be a part): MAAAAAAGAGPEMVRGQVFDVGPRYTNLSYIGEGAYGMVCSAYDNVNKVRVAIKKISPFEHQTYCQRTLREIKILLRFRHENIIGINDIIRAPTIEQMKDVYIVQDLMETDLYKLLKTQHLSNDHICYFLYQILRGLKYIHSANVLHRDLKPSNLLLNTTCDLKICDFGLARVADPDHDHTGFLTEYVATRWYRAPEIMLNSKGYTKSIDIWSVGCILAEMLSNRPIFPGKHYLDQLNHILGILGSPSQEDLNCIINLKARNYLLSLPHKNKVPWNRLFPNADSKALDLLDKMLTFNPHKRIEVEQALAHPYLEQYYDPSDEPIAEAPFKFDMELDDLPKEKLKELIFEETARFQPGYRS

`CC(=O)N1CCN(c2cnc3ccc(NC(=O)NC4CCCC4)nc3c2)CC1` [Compound 0148]: the IC50 in assay [1] (setting [3]) was 0.1 to 1 µM; in assay [2], 1 to 10 µM; on human PI3Kα protein (setting [4]), below 0.1 µM.
Taken in the same sequence, the figures for `CN1CCC(n2cc(-c3cnc4ccc(NC(=O)NC5(C)CCCC5)nc4c3)cn2)CC1` [Compound 0255] were 0.1 to 1 µM, below 1 µM and below 0.1 µM.
Take `O=C(Nc1ccc2ncc(-c3cccc(CO)c3)cc2n1)NC1CCCC1` [Compound 0041]: the results for the IC50 (in assay [1] (setting [3]); in assay [2]; at human PI3Kα protein (setting [4])) were below 0.1 µM, 1 to 10 µM and 0.1 to 1 µM, respectively.
On the same counts, the results for `O=C(Nc1ccc2ncc(N3CCN(c4ccncc4)CC3)cc2n1)NC1CCCC1` [Compound 0158] are 0.1 to 1 µM, below 1 µM and below 0.1 µM.
Taken in the same sequence, the figures for `O=C(Nc1ccc2ncc(N3CCN(c4ccccn4)CC3)cc2n1)NC1CCCC1` [Compound 0154] were 0.1 to 1 µM, below 1 µM and 0.1 to 1 µM.
Take `O=C(Nc1ccc2ncc(N3CCN(c4cccnc4)CC3)cc2n1)NC1CCCC1` [Compound 0157]: the IC50 is 0.1 to 1 µM in assay [1] (setting [3]), below 1 µM in assay [2] and below 0.1 µM at human PI3Kα protein (setting [4]).
On to `CCCC(C)(C)NC(=O)Nc1ccc2ncc(-c3cnn(CCCN4CCOCC4)c3)cc2n1` [Compound 0182], for which the IC50 in assay [1] (setting [3]) is below 0.1 µM; in assay [2] it was below 1 µM; on human PI3Kα protein (setting [4]), below 0.1 µM.
Regarding `O=C(Nc1ccc2ncc(N3CCOC3=O)cc2n1)NC1CCCC1` [Compound 0046], the values for the IC50 (in assay [1] (setting [3]); in assay [2]; at human PI3Kα protein (setting [4])) were 0.1 to 1 µM, 1 to 10 µM and below 0.1 µM, respectively.
Taken in the same sequence, the figures for `O=C(Nc1ccc2ncc(-c3ccccn3)cc2n1)NC1CCCC1` [Compound 0136] were below 0.1 µM, 1 to 10 µM and below 0.1 µM.
Turning to `CN(C)CC(C)(C)Cn1cc(-c2cnc3ccc(NC(=O)NC4CCCC4)nc3c2)cn1` [Compound 0243], the figures for the IC50 (in assay [1] (setting [3]); in assay [2]; at human PI3Kα protein (setting [4])) were 0.1 to 1 µM, below 1 µM and below 0.1 µM, respectively.
On to `O=C(Nc1ccc2ncc(-c3cn[nH]c3)cc2n1)N[C@@H]1CCC[C@H]1OCc1ccccc1` [Compound 0160], for which the IC50 in assay [1] (setting [3]) is below 0.1 µM; on human PI3Kα protein (setting [4]), 1 to 10 µM.
Taken in the same sequence, the figures for `Cn1cc(-c2cnc3ccc(NC(=O)NC4CCCC4)nc3c2)c(CO)n1` [Compound 0216] were below 0.1 µM and below 0.1 µM.
Taken in the same sequence, the figures for `COc1cccc(CCCCNC(=O)Nc2ccc3ncc(-c4cn[nH]c4)cc3n2)c1` [Compound 0169] were below 0.1 µM and 0.1 to 1 µM.
Taken in the same sequence, the figures for `COCCN(C)c1cnc2ccc(NC(=O)NC3CCCC3)nc2c1` [Compound 0026] were 0.1 to 1 µM and below 0.1 µM.
For `CC(C)(C)NC(=O)Nc1ccc2ncc(-c3cn[nH]c3)cc2n1` [Compound 0059], the IC50 (in assay [1] (setting [3]); at human PI3Kα protein (setting [4])) was below 0.1 µM throughout.
For the compound `CN1CC(Cn2cc(-c3cnc4ccc(NC(=O)NC5CCCC5)nc4c3)cn2)C1` [Compound 0147], the IC50 (in assay [1] (setting [3]); on human PI3Kα protein (setting [4])) was below 0.1 µM throughout.
Regarding `O=C(Nc1ccc2ncc(-c3cn[nH]c3)cc2n1)NC1C[C@H]2CC[C@@H]1C2` (stereo partly drawn) [Compound 0068], the IC50 in assay [1] (read-out: ERK2, IC50) is 0.004 µM; in assay [1] (setting [3]), below 0.1 µM; on human PI3Kα protein (read-out: PI3Kα, IC50), 0.03 µM; on human PI3Kα protein (setting [4]), below 0.1 µM.
For the compound `CN1CCN(c2cnc3ccc(NC(=O)NC4CCCC4)nc3c2)CC1=O` [Compound 0155], the IC50 is 0.1 to 1 µM in assay [1] (setting [3]) and below 0.1 µM on human PI3Kα protein (setting [4]).
In the case of `CS(=O)(=O)Nc1cccc(-c2cnc3ccc(NC(=O)NC4CCCC4)nc3c2)c1` [Compound 0035], the IC50 (in assay [1] (setting [3]); at human PI3Kα protein (setting [4])) was below 0.1 µM in each case.
For the compound `CS(=O)(=O)N1CCN(c2cnc3ccc(NC(=O)NC4CCCC4)nc3c2)CC1` [Compound 0151], the IC50 (in assay [1] (setting [3]); at human PI3Kα protein (setting [4])) was below 0.1 µM throughout.
As for `COCCN(C)CCn1cc(-c2cnc3ccc(NC(=O)NC4CCCC4)nc3c2)cn1` [Compound 0037], the IC50 (in assay [1] (setting [3]); on human PI3Kα protein (setting [4])) was below 0.1 µM in each case.
